According to patent US12594292B2, “Antiviral prodrugs, intermediate-and long-acting formulations and methods” (priority 2022, dated 2026):
Like-named read-outs stand apart in the source and are kept apart here.

Key:
[1] = system: USA WA-01 strain of SARS CoV-2; test: Anti-coronavirus activity in Vero E6 cells, qPCR of spike RNA (Example 2); assay type: cell-based
Description: (§1) Ten thousand Vero E6 cells were seeded in 100 microliters of culture medium in 96 well plates. The following day serial two-fold dilutions of antiviral compounds or the DMSO-containing vehicle were added to each well. The USA WA-01 strain of SARS CoV-2 was added to each well at a multiplicity of infection of 0.1 thirty minutes later. Cells were incubated for 48 hours, washed twice in PBS and lysed with TRIzol. RNA was extracted using Directzol micro RNA columns. RNA was made into cDNA and assayed for the SARS CoV-2 spike protein and for a housekeeping gene (RPLPO) RNA by qPCR. Data represents the average of duplicate wells. Cellular cytotoxicity was also measured in VERO E6 cells. […] Cytotoxicity (CC50) was assessed using a commercially available MTT assay.

VERO E6 cells [2] = test: Cellular cytotoxicity in Vero E6 cells, MTT assay (Example 2); assay type: cell-based
Description: as §1

[3] = system: SARS-CoV-2 isolate USA-WA1/2020; test: SARS-CoV-2 infection in Vero E6 cells, qRT-PCR of Spike RNA (Example 3); assay type: cell-based
VERO E6 cells [4] = test: CellTiter-Glo luminescent cell viability assay, Vero E6 (Example 3); assay type: cell-based
Description: CellTiter-glo luminescent cell viability assay: Approximately 10^4 Vero E6 cells per well were seeded in opaque walled 96 well cell culture plates and incubated overnight. Compounds or controls were added at the indicated concentrations. […] Viability was calculated compared to untreated controls and CC50 values were calculated using Prism 8.
Determination of Cytotoxicity: The 50% cytotoxic concentrations (CC50) were determined with Cell Titer Glo (Cat. #G7570, Promega, Madison, WI) according to the manufacturer's instructions. The calculated CC50 values are shown in the foregoing table.
Relative viability was measured by CellTiter-Glo luminescent cell viability assay, as depicted at FIG. 2.

HCoV-229E = assay type: cell-based, human Coronavirus 229E
Huh7.5 cells [5] = test: Cytotoxicity in Huh7.5 cells, nuclei count (Example 6); assay type: cell-based, human
[6] = system: SARS-CoV-2 isolate USA-WA1/2020; test: SARS-CoV-2 infection in Vero E6 cells, qRT-PCR (Example 7); assay type: cell-based
[7] = system: SARS-CoV-2 isolate USA-WA1/2020; test: SARS-CoV-2 infection in PSC-human lung cells, qRT-PCR (Example 7); assay type: cell-based; settings: PSC-human lung cells, MOI 0.01, 48 hours
[8] = system: SARS-CoV-2 isolate USA-WA1/2020; test: SARS-CoV-2 infection in Huh7.5 cells, qRT-PCR (Example 7); assay type: cell-based
Huh7.5 cells [9] = test: Cell viability assay CellTiter-Glo, Huh7.5 cells (Example 7)
VERO E6 cells [10] = test: Cell viability assay CellTiter-Glo, Vero E6 cells (Example 7)
SARS-CoV-2 [11] = test: SARS-CoV-2 infection assay in Huh7.5 cells, nucleocapsid immunofluorescence (Example 6); assay type: cell-based; settings: MOI 0.1, 48 hours
SARS-CoV-2 [12] = test: SARS-CoV-2 infection assay in TMPRSS2-Vero cells, nucleocapsid immunofluorescence (Example 6); assay type: cell-based; settings: MOI 0.01, 32 hours
TMPRSS2-Vero cells = test: Cytotoxicity in TMPRSS2-Vero cells, nuclei count (Example 6); assay type: cell-based; settings: TMPRSS2-Vero cells; read-out: CC50
SRV A2 strain of RSV = test: RSV infection in Hep-2 cells, CPE reduction; assay type: cell-based, respiratory syncytial virus; settings: RSV A2 in Hep-2 cells, 72 to 96 hours
Description: Methods: The SRV A2 strain of RSV was obtained from the ATCC. Ten thousand Hep-2 cells were seeded into each well of a 96-well plate in EMEM with 10% fetal bovine serum and 1% penicillin and streptomycin. Each well was inoculated with 100 TCID50 of virus. Two hours later wells were washed once with medium and serial four-fold dilutions of candidate antiviral drugs were added.

Hep-2 cells = test: Cell viability assay for the RSV table (CC50); assay type: cell-based; settings: Hep-2 cells; read-out: CC50
Calu-3 cells = test: Cytotoxicity in Calu-3 cells, nuclei count or CellTiter-Glo (Example 6); settings: for select compounds up to 100 μM by CellTiter-Glo
Description: After which an equal volume of CellTiter-Glo reagent (Cat. #G7570, Promega, Madison, WI) was added, mixed and luminescence recorded on a Veritas Microplate Luminometer (Turner BioSystems) according to manufacturer recommendations.

SARS-CoV-2 [13] = test: SARS-CoV-2 infection assay in Calu-3 cells, nucleocapsid immunofluorescence (Example 6); settings: MOI 0.01, 44 hour
[14] = Cytotoxicity (CC50) in human PBMCs; assay type: cell-based; settings: human PBMCs
HIV-1 [15] = settings: for EC50: HIV infected human PBMCs
Description: (§2) Antiviral activities were determined in HIV infected human PBMCs.

HIV-1 [16] = test: microbe, parasite or virus in culture; settings: Human immunodeficiency virus 1, PBMC
Description: as §2

human PBMCs = test: Cytotoxicity (CC50) in human PBMCs; assay type: cell-based; settings: variation of the diester substituent of ODE-TFV; read-out: CC50
HFF cells = test: Persistence of TFVpp in HFF cells after a 3 day exposure; settings: HFF cells, 1 micromolar drug for 3 days
Source text: HFF cells were exposed to 1 micromolar drug for 3 days. At days 0, 1, 2, 4, 7, 14, 21, and 28, cells were trypsinized, counted, and processed for LC/MS measurement of TFVpp. Data were expressed at ftg/cell. nm=not meaningful; ftg—gemtogram.

[17] = Vero E6 cells, MOI 0.1, 48 hours
[18] = Vero E6 cells, MOI 0.01, 48 hours, mean±SD
[19] = Vero E6 cells, MOI 0.01, 48 hours
[20] = Huh7.5 cells, MOI 0.01, 48 hours, qRT-PCR (Example 7)
[21] = variation of the diester substituent of ODE-TFV

## CCCCCCCCCCCCCCCCOCCCOP(=O)(O)OC[C@H]1O[C@@](C#N)(c2ccc3c(N)ncnn23)[C@H](O)[C@@H]1O [Compound 4b, 3-(Hexadecyloxy)propyl-phospho-RVn]
[1]; CC50/EC50, Vero E6
  Selectivity Index: 25.0
[1]; USA WA-1 strain, Vero E6 cells
  times more active than remdesivir: 3.3
[1]; [17]
  EC50: 840 nM
  EC90: 1580 nM
VERO E6 cells [2]
  CC50: 21000 nM
[3]; CC50/EC50, Vero E6
  Selectivity: 52
[3]; [18]
  EC50: 960 ± 170 nM
  EC90: 2100 ± 780 nM
VERO E6 cells [4]
  CC50: 51000 nM
HCoV-229E
  EC50: 3020 ± 360 nM
  EC90: 6600 ± 1140 nM
Huh7.5 cells [5]
  CC50: > 20000 nM
[6]; CC50/EC50, Vero E6 cells
  Selectivity: >158
[6]; [19]
  EC50: 630 nM
  EC90: 730 nM
[7]
  EC50: 350 nM
  EC90: 940 nM
[8]; CC50/EC50, Huh7.5 cells
  Selectivity: >526
[8]; [20]
  EC50: 190 nM
  EC90: 400 nM
[8]; Huh7.5 cells, MOI 0.01, 48 hours, qRT-PCR (Example 7), listed as HDP-P-RVn
  EC50: 190 nM
MRC-5 cells
  CC50: 32100 ± 17900 nM
Huh7.5 cells [9]
  CC50: > 100000 nM
VERO E6 cells [10]
  CC50: > 100000 nM

## CCCCCCCCCCCCCCCCOC[C@H](COP(=O)(O)OC[C@H]1O[C@@](C#N)(c2ccc3c(N)ncnn23)[C@H](O)[C@@H]1O)OCc1ccc(OC)c(F)c1 [Compound 15c, 1-O-Hexadecyl-2-O-(3-fluoro, 4-methoxybenzyl)-sn-glyceryl-phospho-RVn]
HCoV-229E
  EC50: 360 ± 54 nM
  EC90: 1120 ± 100 nM
SARS-CoV-2 [11]
  EC50: 49 nM
  EC90: 113 nM
Huh7.5 cells [5]; Huh7.5 cells, read-out: CC50
  CC50: > 20000 nM
SARS-CoV-2 [12]
  EC50: 397 nM
  EC90: 869 nM
TMPRSS2-Vero cells
  CC50: > 20000 nM
SRV A2 strain of RSV
  EC50: 34 nM
  EC90: 68 nM
Hep-2 cells
  CC50: 20600 nM
MRC-5 cells
  CC50: > 50000 nM
Calu-3 cells
  CC50: 75600 ± 3960 nM
SARS-CoV-2 [13]
  EC50: 51 ± 6 nM
  EC90: 221 ± 58 nM

## CCCCCCCCCCCCCCCCCCOC[C@H](COP(=O)(O)OC[C@H]1O[C@@](C#N)(c2ccc3c(N)ncnn23)[C@H](O)[C@@H]1O)OCc1ccc(OC)c(F)c1 [Compound 15j, 1-O-Octadecyl-2-O-(3-fluoro-4-methoxy-benzyl)-sn-glyceryl-phospho-RVn]
HCoV-229E
  EC50: 74 ± 10 nM
  EC90: 170 ± 14 nM
SARS-CoV-2 [11]
  EC50: 56 nM
  EC90: 222 nM
Huh7.5 cells [5]; Huh7.5 cells, read-out: CC50
  CC50: > 20000 nM
SARS-CoV-2 [12]
  EC50: 174 nM
  EC90: 341 nM
TMPRSS2-Vero cells
  CC50: > 20000 nM
SRV A2 strain of RSV
  EC50: 10 nM
  EC90: 19 nM
Hep-2 cells
  CC50: 9600 nM
MRC-5 cells
  CC50: > 50000 nM
Calu-3 cells
  CC50: 50600 ± 5420 nM

## CCCCCCCC/C=C\CCCCCCCCOC[C@H](COP(=O)(O)OC[C@H]1O[C@@](C#N)(c2ccc3c(N)ncnn23)[C@H](O)[C@@H]1O)OCc1ccc(OC)c(F)c1 [Compound 15m, 1-O-Oleyl-2-O-(3-fluoro, 4-methoxybenzyl)-sn-glyceryl-phospho-RVn]
HCoV-229E
  EC50: 60 ± 14 nM
  EC90: 110 ± 20 nM
SARS-CoV-2 [11]
  EC50: 54 nM
  EC90: 102 nM
Huh7.5 cells [5]; Huh7.5 cells, read-out: CC50
  CC50: > 20000 nM
SARS-CoV-2 [12]
  EC50: 296 nM
  EC90: 524 nM
TMPRSS2-Vero cells
  CC50: > 20000 nM
SRV A2 strain of RSV
  EC50: 5 nM
  EC90: 9.4 nM
Hep-2 cells
  CC50: 12500 nM
MRC-5 cells
  CC50: > 50000 nM
Calu-3 cells
  CC50: 58500 ± 6280 nM

## CCCCCCCCCCCCCCCCCCOCCOP(=O)(OCc1ccccc1)OC[C@H]1O[C@@H](n2cc(F)c(N)nc2=O)CS1 (stereo partly shown) [ODE-Bn-P-Emtricitabine, Octadecyloxyethyl benzyl-phospho-emtricitabine]
[14]
  CC50: 54700 ± 45300 nM
HIV-1 [15]; CC50/EC50
  Selectivity Index: 2989
HIV-1 [16]
  EC50: 18.3 ± 8.7 nM

## CCCCCCCCCCCCCCCCCCOCCOP(=O)(CO[C@H](C)Cn1cnc2c(N)ncnc21)OCc1ccccc1 (stereo partly shown) [ODE-Bn-TFV, Octadecyloxyethyl benzyl tenofovir]
[14]
  CC50: 8720 nM
HIV-1 [15]; CC50/EC50
  Selectivity Index: 5130
HIV-1 [16]
  EC50: 1.7 ± 1.5 nM

## CCCCCCCCCCCCCCCCCCOCCOP(=O)(CO[C@H](C)Cn1cnc2c(N)ncnc21)OC (stereo partly shown) [ODE-Me-TFV]
Human PBMCs
  CC50: 2980 nM
HFF cells
  Cmax of TFVpp: 9.3 ftg/cell
  T1/2 of TFVpp: 2.0
  T1/10 of TFVpp: 11.3
  Tmax of TFVpp: 0 h
HIV-1 [15]; [21]
  Selectivity Index: 677
  EC50: 5.2 nM

## CCCCCCCCCCCCCCCCCCOCCOP(=O)(O)OC[C@H]1O[C@@H](n2cc(F)c(N)nc2=O)CS1 [ODE-P-Emtricitabine, Octadecyloxyethyl-phospho-emtricitabine]
[14]
  CC50: 35600 ± 12900 nM
HIV-1 [15]; CC50/EC50
  Selectivity Index: 3708
HIV-1 [16]
  EC50: 9.6 ± 3.1 nM

## CCCCCCCCCCCCCCCCCCOCCOP(=O)(CO[C@H](C)Cn1cnc2c(N)ncnc21)Oc1ccccc1 (stereo partly shown) [ODE-Ph-TFV]
Human PBMCs
  CC50: 3930 nM
HFF cells
  Cmax of TFVpp: 8.1 ftg/cell
  T1/2 of TFVpp: 3.0
  T1/10 of TFVpp: 15.1
  Tmax of TFVpp: 24 h
HIV-1 [15]; [21]
  Selectivity Index: 1640
  EC50: 2.4 nM

## CCCCCCCC/C=C\CCCCCCCCOCCOP(=O)(O)CO[C@H](C)Cn1cnc2c(N)nc(N)nc21 [OLE-PMPDAP, Oleyloxyethyl 9-(R)-[(2-phosphonomethoxy)propyl]-2,6-diaminopurine]
[14]
  CC50: 15000 ± 12300 nM
HIV-1 [15]; CC50/EC50
  Selectivity Index: 150,000
HIV-1 [16]
  EC50: 0.1 ± 0.03 nM
